Assay results published in paper PMC12040169 (PLOS Biology, 2025).

Assay: in vitro
Settings: human, hela cells, % viability

Row | Structure (SMILES) | viability at 28.5 h, 10 µM [%]
1 | Cc1nn(C)cc1C(C)NC(=O)c1ccc2c(c1)ncn2C (centres unmarked) [CBK281732] | 103
2 | Cc1cc(C2CCCCCN2C(=O)c2cc(C(C)C)on2)on1 (centres unmarked) [CBK281733] | 79.7
3 | Cc1cccn2cc(C(=O)N(C)CCn3ccnc3C)nc12 [CBK281735] | 91.7
4 | CC1CCN(CC(C)(C)n2cncc2-c2cnn(C)c2)CC1 [CBK281738] | 107
5 | Cc1nn(C)cc1-c1cncn1CC(C)Oc1ccccc1Cl (centres unmarked) [CBK281739] | 83.8
6 | CCn1cc(-c2cncn2C(CCN(C)C)c2ccccc2)cn1 (centres unmarked) [CBK281741] | 79.2
7 | CCc1nccn1C(C)C(=O)Nc1ccc2ncn(C)c2c1 (centres unmarked) [CBK281745] | 107
8 | CN1CCCCC1CC(=O)Nc1ccc2ncn(C)c2c1 (centres unmarked) [CBK281747] | 87.6
9 | CC1(CNC(=O)c2cc(C3CC3)nc3ccccc23)COC1 [CBK281752] | 90
10 | CC1(CNC(=O)C2CC(=O)N(C3CCCCC3)C2)COC1 (centres unmarked) [CBK281754] | 97
11 | CC(CC(=O)NCC1(C)COC1)n1cnc2ccccc21 (centres unmarked) [CBK281755] | 78.1
12 | CC1(CNC(=O)c2cc(-c3ccc(F)cc3)no2)COC1 [CBK281757] | 84.2
13 | Cc1cc(C)n(C(C(=O)NCC2(C)COC2)C(C)C)n1 (centres unmarked) [CBK281758] | 85.9
14 | CCn1cc(-c2cncn2CCCOc2cccc(C)c2)cn1 [CBK281760] | 90.5
15 | CCn1nc(C)c(-c2cncn2CCCOc2ccccc2C)c1C [CBK281761] | 99.7
16 | Cc1cccc(OCCCn2cncc2-c2cnn(C)c2)c1 [CBK281763] | 82
17 | CCn1nc(C)c(-c2cncn2CCn2nc(C)c(Cl)c2C)c1C [CBK281768] | 90.4
18 | CCn1nc(C)c(-c2cncn2CCCN2CCCCC2)c1C [CBK281769] | 97.6
19 | Cc1cc(C)n(CCCn2cncc2-c2cnn(C)c2)n1 [CBK281771] | 84.9
20 | Cc1cc(C)n(CCCn2cncc2-c2ccc3c(c2)CC(C)N3C)n1 (centres unmarked) [CBK281773] | 62
21 | Cc1nn(C)c(C)c1CCNC(=O)CC1CCCCN1C (centres unmarked) [CBK281774] | 97.6
22 | CC(C)(CO)CCCn1cncc1-c1cnn(C2CCCCC2)c1 [CBK281779] | 86.7
23 | Cc1nn(C)cc1-c1cncn1CC(C)N1CCCCC1 (centres unmarked) [CBK281781] | 92.1
24 | Cc1nn(CCn2cncc2-c2cnn(C)c2)c(C)c1C [CBK281783] | 83.7

Row | Structure (SMILES) | viability at 28.5 h, 10 µM [%]
25 | Cn1cc(-c2cncn2CCCOc2ccc(Cl)cc2)cn1 [CBK281784] | 95.2
26 | Cc1nn(C)cc1-c1cncn1CC(C)N1CCC(C)CC1 (centres unmarked) [CBK281789] | 91.4
27 | Cc1ccc2[nH]c(-c3cncn3C(C)CN3CCOCC3)c(C)c2c1 (centres unmarked) [CBK281794] | 103
28 | Cc1c(-c2cncn2C(C)CN2CCOCC2)[nH]c2ccccc12 (centres unmarked) [CBK281795] | 99.9
29 | CCCn1nc(C)c(-c2cncn2CC(C)N2CCCCC2)c1C (centres unmarked) [CBK281802] | 95.7
30 | CC(=O)NC1(c2ccccc2)CCN(Cc2ccnn2C)CC1 [CBK281805] | 87.8
31 | Cc1cc(C)n(C2CCN(Cc3cn(C)c4cc(F)ccc34)CC2)n1 [CBK281806] | 112
32 | CCn1nc(C)c(-c2cncn2CCCC(C)(C)CO)c1C [CBK281807] | 84.4
33 | Cc1nccn1CCCn1cncc1-c1ccc2c(c1)CC(C)(C)O2 [CBK281809] | 106
34 | Cc1nccn1CCCn1cncc1-c1ccc2c(c1)CCC(C)N2C (centres unmarked) [CBK281811] | 91
35 | CC(C)c1nccn1CCCn1cncc1-c1cnn(C)c1 [CBK281812] | 104
36 | COc1ccc(CCn2cncc2-c2cn(C)nc2C)cc1C [CBK281814] | 102
37 | CCN1c2ccc(-c3cncn3CC(=O)NC(C)(C)C)cc2CC1C (centres unmarked) [CBK281815] | 95.7
38 | Cc1nccn1CCCn1cncc1-c1cnn(C2CCCCC2)c1 [CBK281816] | 105
39 | COc1cccc2cc(-c3cncn3CCCC(C)(C)CO)oc12 [CBK281817] | 112
40 | Cc1nccn1CCCn1cncc1-c1ccc2c(c1)CC(C)N2C (centres unmarked) [CBK281818] | 87.8
41 | CC(NC(=O)c1cc2ccc(N(C)C)cc2[nH]1)c1ccccn1 (centres unmarked) [CBK281821] | 80.6
42 | CC(NC(=O)CCc1nc2ccccc2n1C)c1ccccn1 (centres unmarked) [CBK281823] | 89
43 | CN(C)c1ccc(CCNC(=O)c2c3c(nn2C)CCCC3)cc1 [CBK281824] | 96.4
44 | Cc1cc(C(=O)NC(C)c2ccccn2)c2ccccc2n1 (centres unmarked) [CBK281826] | 96.9
45 | CN(CCN1CCCCC1)C(=O)c1cc2ccc(N(C)C)cc2[nH]1 [CBK281830] | 107
46 | Cc1ccc(C2(C(=O)N(C)CCN3CCCCC3)CCOCC2)cc1 [CBK281833] | 107
47 | CCn1c(C)nc2cc(NC(=O)Cc3c(C)noc3C)ccc21 [CBK281834] | 100
48 | CN(CCN1CCCCC1)C(=O)c1cc2c([nH]1)CCCC2 [CBK281836] | 86.5

Row | Structure (SMILES) | viability at 28.5 h, 10 µM [%]
49 | Cc1nc2cc(C(=O)N3CCc4[nH]c5ccccc5c4C3)ccc2n1C [CBK281842] | 60.6
50 | O=C(Cn1cnc2ccccc21)N1CCC(c2ccccc2)C1 (centres unmarked) [CBK281845] | 84.5
51 | CN(C)Cc1ccc(C(=O)N2CCc3[nH]c4ccccc4c3C2)cc1 [CBK281847] | 82.9
52 | Cc1noc(C)c1CC(=O)N1CCc2[nH]c3ccccc3c2C1 [CBK281848] | 97.8
53 | O=C(c1cn2ccccc2n1)N1CCC(c2ccccc2)C1 (centres unmarked) [CBK281850] | 104
54 | O=C(c1cc(-c2ccccn2)n[nH]1)N1CCC(c2ccccc2)C1 (centres unmarked) [CBK281852] | 91.9
55 | O=C(c1cnn(-c2ccccc2)c1)N1CCc2[nH]c3ccccc3c2C1 [CBK281853] | 74.1
56 | Cc1nc2cc(C(=O)N(C)CCN3CCCCC3)ccc2n1C [CBK281854] | 78.3
57 | CC1(C)C(=O)NCCN1C(=O)Cn1cnc2ccccc21 [CBK281856] | 89.3
58 | CCn1c(C)nc2cc(NC(=O)CC3CCCCO3)ccc21 (centres unmarked) [CBK281859] | 98.2
59 | O=C(Cn1cnc2ccccc21)N1CCc2[nH]c3ccccc3c2C1 [CBK281860] | 74.7
60 | O=C(CCn1cccn1)Nc1ccc(OC2CCCC2)cc1 [CBK281861] | 87.1
61 | Cc1nc2cc(C(=O)NCC(C)(C)N3CCCCC3)ccc2n1C [CBK281862] | 86.4
62 | Cc1nc(C(F)(F)F)ccc1C(=O)NCC(C)(C)N1CCCCC1 [CBK281864] | 98
63 | CCN(C(=O)c1n[nH]c2c1CCC2)C1CCN(C)CC1 [CBK281870] | 102
64 | Cc1nc(C)c(C(=O)N2CCc3[nH]c4ccccc4c3C2)o1 [CBK281873] | 110
65 | O=C(c1cnn2cccnc12)N1CCc2[nH]c3ccccc3c2C1 [CBK281874] | 93
66 | Oc1cc(CCc2ccc(F)cc2)nc2ccnn12 [CBK281876] | 88.9
67 | Cn1nc2c(c1C(=O)NCC(C)(C)N1CCCCC1)CCCC2 [CBK281878] | 94.4
68 | CCn1c(C)nc2cc(NC(=O)c3oc(C)nc3C)ccc21 [CBK281881] | 106
69 | Cc1nccn1CCC(=O)N1CCc2[nH]c3ccccc3c2C1 [CBK281882] | 111
70 | CC(NC(=O)Cn1ccnc1-c1ccccc1)c1ccccn1 (centres unmarked) [CBK281885] | 103
71 | CC(NC(=O)c1cn(C)c(=O)c2ccccc12)c1ccccn1 (centres unmarked) [CBK281886] | 92.1
72 | Cc1ccc2[nH]nc(C(=O)NC(C)c3ccccn3)c2c1 (centres unmarked) [CBK281887] | 69.9

Row | Structure (SMILES) | viability at 28.5 h, 10 µM [%]
73 | CC(NC(=O)c1c2c(nn1C)CCCC2)c1ccccn1 (centres unmarked) [CBK281888] | 95.2
74 | CC(NC(=O)CCc1cn(C)c2ccccc12)c1ccccn1 (centres unmarked) [CBK281889] | 93.1
75 | Cn1nccc1CN1CCCC(Cc2nc3ccccc3[nH]2)C1 (centres unmarked) [CBK281892] | 98.2
76 | Cc1ccc(C(Cn2cncc2-c2cn(C)nc2C)N(C)C)cc1 (centres unmarked) [CBK281896] | 98.7
77 | O=C(Cn1cccc2cc(-c3cccs3)nc1-2)NC1CC1 [CBK281897] | 108
78 | Cc1oc2c(c1C(=O)NCCn1ccnc1C)CCCC2 [CBK281898] | 97.1
79 | Cc1cc(C)n(CCCN(C)Cc2c(C)nc3ccccn23)n1 [CBK281901] | 90
80 | CN(CCN1CCCCC1)C(=O)c1ccccc1Cn1cccn1 [CBK281904] | 105
81 | CN(CCN1CCCCC1)C(=O)CCc1cn(C)c2ccccc12 [CBK281906] | 94.3
82 | O=C1CCCN1c1ccc(CN2CCN(C3CCCC3)C(=O)C2)cc1 [CBK281908] | 96.2
83 | Cn1c(=O)n(C)c2cc(CN3CCN(C4CCCC4)C(=O)C3)ccc21 [CBK281909] | 97.1
84 | Cn1cc(C(=O)N2CCc3nc(-c4cccc(F)c4)sc3C2)cn1 [CBK281910] | 94.5
85 | Cc1c(-c2cncn2CC(=O)NC(C)(C)C)[nH]c2ccccc12 [CBK281911] | 87.5
86 | Cn1cc(C(=O)N2CCc3nc(-c4ccccc4F)sc3C2)cn1 [CBK281914] | 89
87 | CN(C)c1ccc(CCNC(=O)c2cn3ccccc3n2)cc1 [CBK281916] | 87.4
88 | Cn1cc(C(=O)N2CCC(c3ccccc3)C2)c2ccccc2c1=O (centres unmarked) [CBK281921] | 103
89 | CC(C)(CO)CCCn1cncc1-c1cnn(-c2ccccc2)c1 [CBK281922] | 96.9
90 | C=CCN1CCc2cc(-c3cncn3CC(=O)NC(C)(C)C)ccc21 [CBK281923] | 86.7
91 | CCN1c2ccc(-c3cncn3CCCn3ccnc3C)cc2CC1C (centres unmarked) [CBK281924] | 90.7
92 | O=C1CN(Cc2cnn(-c3ccc(F)cc3)c2)CCN1C1CCCC1 [CBK281926] | 86.5
93 | CN(C(=O)C1CC1)c1nc2c(s1)CCc1c-2cnn1C [CBK281927] | 75.7
94 | CN(C(=O)c1ccco1)c1nc2c(s1)CCc1c-2cnn1C [CBK281928] | 81.2
95 | CN(C(=O)Cc1ccsc1)c1nc2c(s1)CCc1c-2cnn1C [CBK281929] | 82.4
